The text below walks through data of publication PMC12785804, “Triterpenoids CDDO and CDDO-EA Inhibit the Replication of Hepatitis B Virus by Modulating Nucleocapsid Assembly” (International Journal of Molecular Sciences, 2025).

In assay [1] the target is T1, HBc protein (HBV core protein), purchased (Hepatitis B virus ayw/France/Tiollais/1979, UniProt P03146).
T1 construct: gene C; purchased from Sino Biological; immobilised on CM5 chip
In words: SPR (Reichert4, CM5 chip). The assay is classed as binding.

In assay [2] the target is T2, HBc (HBV core protein) in HepAD38 lysate (Hepatitis B virus ayw/France/Tiollais/1979, UniProt P03146).
T2 construct: gene C; full-length core expressed from the integrated tetracycline-regulated HBV genome of HepAD38 (HepG2-derived); freeze-thaw cell lysate
Kind of assay: CETSA, Western blot. The format is biochemical. The following applies: cell lysate, 30 min at room temperature, then 37-72 °C for 3 min.

T2 sequence (P03146 whole entry): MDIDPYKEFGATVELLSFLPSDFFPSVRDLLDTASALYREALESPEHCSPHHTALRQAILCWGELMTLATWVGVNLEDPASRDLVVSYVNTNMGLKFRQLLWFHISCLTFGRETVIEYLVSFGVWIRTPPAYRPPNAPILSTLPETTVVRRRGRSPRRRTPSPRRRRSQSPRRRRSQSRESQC
T1 sequence (P03146 whole entry): as above

For `CC1(C)CC[C@]2(C(=O)O)CC[C@]3(C)[C@H](C(=O)C=C4[C@@]5(C)C=C(C#N)C(=O)C(C)(C)[C@@H]5CC[C@]43C)[C@@H]2C1` [CDDO, 2-cyano-3,12-dioxooleana-1,9-dien-28-oic acid], the SPR binding entry in assay [1] is “compounds CDDO-EA and CDDO exhibited weak binding kinetics to HBc protein”. Moreover, the “thermal shift (right-shifted CETSA melting curve)” value in assay [2] (0.8 μM compound) was “CDDO-EA and CDDO treatments significantly stabilized HBc protein”.
For `CCNC(=O)[C@]12CCC(C)(C)C[C@H]1[C@H]1C(=O)C=C3[C@@]4(C)C=C(C#N)C(=O)C(C)(C)[C@@H]4CC[C@@]3(C)[C@]1(C)CC2` [CDDO-EA], in assay [1], the SPR binding result was “compounds CDDO-EA and CDDO exhibited weak binding kinetics to HBc protein”. Besides, in assay [2] (0.4 μM compound), the “thermal shift (right-shifted CETSA melting curve)” value was “CDDO-EA and CDDO treatments significantly stabilized HBc protein”.
